According to patent US6426369B1, “Oxethazaine as antimicrobial agent” (Eisai Co., Ltd., priority 1997, dated 2002):

System: H. pylori
Test: Antimicrobial activity test 6: oxethazaine in combination with an antibiotic (AMPC, CAM, RXM), checker board method
Format: cell-based, Helicobacter pylori
Set-up: key to growth of H. pylori: “−” indicates the inhibited growth of H. pylori (presence of antimicrobial activity); “+” indicates the growth of H. pylori (absence of antimicrobial activity)
From the text: The effect of combined use with amoxicillin (AMPC), clarithromycin (CAM) or roxithromycin (RXM) was examined in the same manner as in antimicrobial activity test 1, using the checker board method.

[1] = combined use with oxethazaine, out of 15 strains (AMPC), 21 strains (CAM), 22 strains (RXM)

CC[C@H]1OC(=O)[C@H](C)[C@@H](O[C@H]2C[C@@](C)(OC)[C@@H](O)[C@H](C)O2)[C@H](C)[C@@H](O[C@@H]2O[C@H](C)C[C@H](N(C)C)[C@H]2O)[C@](C)(OC)C[C@@H](C)C(=O)[C@H](C)[C@@H](O)[C@]1(C)O [clarithromycin]
growth of H. pylori (89-355, oxethazaine 0 + CAM 0.006 μg/ml): +
growth of H. pylori (89-355, oxethazaine 0 + CAM 0.012 μg/ml): +
growth of H. pylori (89-355, oxethazaine 0 + CAM 0.024 μg/ml): +
growth of H. pylori (89-355, oxethazaine 0 + CAM 0.05 μg/ml): +
growth of H. pylori (89-355, oxethazaine 0 + CAM 0.1 μg/ml): −
growth of H. pylori (89-355, oxethazaine 0 + CAM 0.2 μg/ml): −
growth of H. pylori (89-355, oxethazaine 0 + CAM 0.4 μg/ml): −
growth of H. pylori (89-355, oxethazaine 0 + CAM 0.8 μg/ml): −
growth of H. pylori (89-355, oxethazaine 0 + CAM 1.56 μg/ml): −
growth of H. pylori (89-355, oxethazaine 0 + CAM 3.13 μg/ml): −
growth of H. pylori (89-355, oxethazaine 0 + CAM 6.25 μg/ml): −
growth of H. pylori (89-355, oxethazaine 0 + CAM 12.5 μg/ml): −
growth of H. pylori (89-355, oxethazaine 0 + CAM 25 μg/ml): −
growth of H. pylori (89-355, oxethazaine 0 + CAM 50 μg/ml): −
growth of H. pylori (89-355, oxethazaine 0 + CAM 100 μg/ml): −
growth of H. pylori (89-357, oxethazaine 0 + CAM 0.006 μg/ml): +
growth of H. pylori (89-357, oxethazaine 0 + CAM 0.012 μg/ml): +
growth of H. pylori (89-357, oxethazaine 0 + CAM 0.024 μg/ml): +
growth of H. pylori (89-357, oxethazaine 0 + CAM 0.05 μg/ml): −
growth of H. pylori (89-357, oxethazaine 0 + CAM 0.1 μg/ml): −
growth of H. pylori (89-357, oxethazaine 0 + CAM 0.2 μg/ml): −
growth of H. pylori (89-357, oxethazaine 0 + CAM 0.4 μg/ml): −
growth of H. pylori (89-357, oxethazaine 0 + CAM 0.8 μg/ml): −
growth of H. pylori (89-357, oxethazaine 0 + CAM 1.56 μg/ml): −
growth of H. pylori (89-357, oxethazaine 0 + CAM 3.13 μg/ml): −
growth of H. pylori (89-357, oxethazaine 0 + CAM 6.25 μg/ml): −
growth of H. pylori (89-357, oxethazaine 0 + CAM 12.5 μg/ml): −
growth of H. pylori (89-357, oxethazaine 0 + CAM 25 μg/ml): −
growth of H. pylori (89-357, oxethazaine 0 + CAM 50 μg/ml): −
growth of H. pylori (89-357, oxethazaine 0 + CAM 100 μg/ml): −
growth of H. pylori (90-388, oxethazaine 0 + CAM 0.006 μg/ml): +
growth of H. pylori (90-388, oxethazaine 0 + CAM 0.012 μg/ml): +
growth of H. pylori (90-388, oxethazaine 0 + CAM 0.024 μg/ml): +
growth of H. pylori (90-388, oxethazaine 0 + CAM 0.05 μg/ml): +
growth of H. pylori (90-388, oxethazaine 0 + CAM 0.1 μg/ml): −
growth of H. pylori (90-388, oxethazaine 0 + CAM 0.2 μg/ml): −
growth of H. pylori (90-388, oxethazaine 0 + CAM 0.4 μg/ml): −
growth of H. pylori (90-388, oxethazaine 0 + CAM 0.8 μg/ml): −
growth of H. pylori (90-388, oxethazaine 0 + CAM 1.56 μg/ml): −
growth of H. pylori (90-388, oxethazaine 0 + CAM 3.13 μg/ml): −
growth of H. pylori (90-388, oxethazaine 0 + CAM 6.25 μg/ml): −
growth of H. pylori (90-388, oxethazaine 0 + CAM 12.5 μg/ml): −
growth of H. pylori (90-388, oxethazaine 0 + CAM 25 μg/ml): −
growth of H. pylori (90-388, oxethazaine 0 + CAM 50 μg/ml): −
growth of H. pylori (90-388, oxethazaine 0 + CAM 100 μg/ml): −
growth of H. pylori (90-390, oxethazaine 0 + CAM 0.006 μg/ml): +
growth of H. pylori (90-390, oxethazaine 0 + CAM 0.012 μg/ml): +
growth of H. pylori (90-390, oxethazaine 0 + CAM 0.024 μg/ml): +
growth of H. pylori (90-390, oxethazaine 0 + CAM 0.05 μg/ml): +
growth of H. pylori (90-390, oxethazaine 0 + CAM 0.1 μg/ml): −
growth of H. pylori (90-390, oxethazaine 0 + CAM 0.2 μg/ml): −
growth of H. pylori (90-390, oxethazaine 0 + CAM 0.4 μg/ml): −
growth of H. pylori (90-390, oxethazaine 0 + CAM 0.8 μg/ml): −
growth of H. pylori (90-390, oxethazaine 0 + CAM 1.56 μg/ml): −
growth of H. pylori (90-390, oxethazaine 0 + CAM 3.13 μg/ml): −
growth of H. pylori (90-390, oxethazaine 0 + CAM 6.25 μg/ml): −
growth of H. pylori (90-390, oxethazaine 0 + CAM 12.5 μg/ml): −
growth of H. pylori (90-390, oxethazaine 0 + CAM 25 μg/ml): −
growth of H. pylori (90-390, oxethazaine 0 + CAM 50 μg/ml): −
growth of H. pylori (90-390, oxethazaine 0 + CAM 100 μg/ml): −
growth of H. pylori (EH 12, oxethazaine 0 + CAM 0.006 μg/ml): +
growth of H. pylori (EH 12, oxethazaine 0 + CAM 0.012 μg/ml): +
growth of H. pylori (EH 12, oxethazaine 0 + CAM 0.024 μg/ml): +
growth of H. pylori (EH 12, oxethazaine 0 + CAM 0.05 μg/ml): −
growth of H. pylori (EH 12, oxethazaine 0 + CAM 0.1 μg/ml): −
growth of H. pylori (EH 12, oxethazaine 0 + CAM 0.2 μg/ml): −
growth of H. pylori (EH 12, oxethazaine 0 + CAM 0.4 μg/ml): −
growth of H. pylori (EH 12, oxethazaine 0 + CAM 0.8 μg/ml): −
growth of H. pylori (EH 12, oxethazaine 0 + CAM 1.56 μg/ml): −
growth of H. pylori (EH 12, oxethazaine 0 + CAM 3.13 μg/ml): −
growth of H. pylori (EH 12, oxethazaine 0 + CAM 6.25 μg/ml): −
growth of H. pylori (EH 12, oxethazaine 0 + CAM 12.5 μg/ml): −
growth of H. pylori (EH 12, oxethazaine 0 + CAM 25 μg/ml): −
growth of H. pylori (EH 12, oxethazaine 0 + CAM 50 μg/ml): −
growth of H. pylori (EH 12, oxethazaine 0 + CAM 100 μg/ml): −
growth of H. pylori (EH 13, oxethazaine 0 + CAM 0.006 μg/ml): +
growth of H. pylori (EH 13, oxethazaine 0 + CAM 0.012 μg/ml): +
growth of H. pylori (EH 13, oxethazaine 0 + CAM 0.024 μg/ml): −
growth of H. pylori (EH 13, oxethazaine 0 + CAM 0.05 μg/ml): −
growth of H. pylori (EH 13, oxethazaine 0 + CAM 0.1 μg/ml): −
growth of H. pylori (EH 13, oxethazaine 0 + CAM 0.2 μg/ml): −
growth of H. pylori (EH 13, oxethazaine 0 + CAM 0.4 μg/ml): −
growth of H. pylori (EH 13, oxethazaine 0 + CAM 0.8 μg/ml): −
growth of H. pylori (EH 13, oxethazaine 0 + CAM 1.56 μg/ml): −
growth of H. pylori (EH 13, oxethazaine 0 + CAM 3.13 μg/ml): −
growth of H. pylori (EH 13, oxethazaine 0 + CAM 6.25 μg/ml): −
growth of H. pylori (EH 13, oxethazaine 0 + CAM 12.5 μg/ml): −
growth of H. pylori (EH 13, oxethazaine 0 + CAM 25 μg/ml): −
growth of H. pylori (EH 13, oxethazaine 0 + CAM 50 μg/ml): −
growth of H. pylori (EH 13, oxethazaine 0 + CAM 100 μg/ml): −
additive effect, number of strains [1]: 17 strains/
synergism, number of strains [1]: 5 strains/
growth of H. pylori (strain 90-397, CAM 0.006 μg/ml, oxethazaine μg/ml: 100, 50, 25, 12.5, 6.25, 3.13, 0): +
growth of H. pylori (strain 90-397, CAM 0.012 μg/ml, oxethazaine μg/ml: 100, 50, 25, 12.5, 6.25, 3.13, 0): +
growth of H. pylori (strain 90-397, CAM 0.024 μg/ml, oxethazaine μg/ml: 100, 50, 25, 12.5, 6.25, 3.13, 0): +
growth of H. pylori (strain 90-397, CAM 0.05 μg/ml, oxethazaine μg/ml: 100, 50, 25, 12.5, 6.25, 3.13, 0): +
growth of H. pylori (strain 90-397, CAM 0.1 μg/ml, oxethazaine μg/ml: 100, 50, 25, 12.5, 6.25, 3.13, 0): +
growth of H. pylori (strain 90-397, CAM 0.2 μg/ml, oxethazaine μg/ml: 100, 50, 25, 12.5, 6.25, 3.13, 0): +
growth of H. pylori (strain 90-397, CAM 12.5 μg/ml, oxethazaine μg/ml: 100, 50, 25, 12.5, 6.25, 3.13, 0): −
growth of H. pylori (strain 90-397, CAM 25 μg/ml, oxethazaine μg/ml: 100, 50, 25, 12.5, 6.25, 3.13, 0): −
growth of H. pylori (strain 90-397, CAM 50 μg/ml, oxethazaine μg/ml: 100, 50, 25, 12.5, 6.25, 3.13, 0): −
growth of H. pylori (strain 90-397, CAM 100 μg/ml, oxethazaine μg/ml: 100, 50, 25, 12.5, 6.25, 3.13, 0): −
